Source: patent US12018011B2, “Macrocyclic compounds and compositions, and methods of preparing and using the same” (Kura Oncology, Inc., priority 2021, dated 2024)
Read-outs that look alike come from different tables or passages of the source.

Key:
[1] = ether bond, 13-membered ring, SOCl2, then Cs2CO3, 2 steps
[2] = ether bond, 13-membered ring, DMF
[3] = ether bond, DMF, 70.0 °C, 2 steps
[4] = target: T1, Recombinant human farnesyl transferase (FTase) (Homo sapiens, UniProt P49356); experiment: FTase fluorescence assay (farnesylation of dansyl-GCVLS peptide); type: biochemical; conditions: recombinant human FTase 2.5 nM, Dansyl-GCVLS 85 nM, FPP 30 nM, 30° C., 50 minutes
T1 construct: purchased Crelux (Martinsried, Germany)

4^4-bromo-2^2-chloro-3-(1-methyl-1H-imidazol-5-yl)-6-oxa-2(4,6)-quinolina-1,4(1,3)-dibenzenacyclohexaphan-3-ol
ring closure, crude yield ([1]; DMF, 116.2 mM, 70.0 °C): 84%

4^4-bromo-2^2-methoxy-3-(1-methyl-1H-imidazol-5-yl)-6-oxa-2(4,6)-quinolina-1,4(1,3)-dibenzenacyclohexaphan-3-ol
ring closure, crude yield ([1]; DMF, 122.7 mM, 70.0 °C): 84.8%

4^4-bromo-3-(1-methyl-1H-imidazol-5-yl)-6-oxa-2(1,7)-isoquinolina-1,4(1,3)-dibenzenacyclohexaphan-3-ol
ring closure, isolated yield ([2]; Cs2CO3, 77.0 mM, 50.0 °C): 60.6%

4^4-chloro-2^2-methoxy-3-(1-methyl-1H-imidazol-5-yl)-6-oxa-2(4,6)-quinolina-1,4(1,3)-dibenzenacyclohexaphan-3-ol
ring closure, crude yield ([1]; DMF/THF 1:3, 9.96 mM, 105.0 °C): 90.7%

4^4-chloro-2^2-methoxy-3-(4-methyl-4H-1,2,4-triazol-3-yl)-6-oxa-2(4,6)-quinolina-1,4(1,3)-dibenzenacyclohexaphan-3-ol
ring closure, isolated yield ([2]; K2CO3, 29.8 mM, 55.0 °C): 69.1%

4^6-chloro-2^2-methoxy-3-(1-methyl-1H-imidazol-5-yl)-6-oxa-2(4,6)-quinolina-4(3,5)-pyridina-1(1,3)-benzenacyclohexaphan-3-ol
ring closure, crude yield ([1]; DMF, 64.5 mM, 70.0 °C): 95.6%

COc1cc2c3cc(ccc3n1)C(O)(c1cncn1C)c1cnc(Cl)c(c1)COc1cccc-2c1 (stereo not shown) [Compound 59, 4^6-chloro-2^2-methoxy-3-(1-methyl-1H-imidazol-5-yl)-6-oxa-2(4,6)-quinolina-4(3,5)-pyridina-1(1,3)-benzenacyclohexaphan-3-ol]
ring closure, yield of all isomers ([3]; from COc1cc(-c2cccc(O)c2)c2cc(C(O)(c3cnc(Cl)c(CO)c3)c3cncn3C)ccc2n1, SOCl2 then Cs2CO3, 64.5 mM, 1.0 h): 95.6% | IC50 [4]: > 100 nM

Cn1cncc1C1(O)c2ccc(Br)c(c2)COc2cccc(c2)-c2cc(Cl)nc3ccc1cc23 (stereo not shown) [Compound 71, 4^4-bromo-2^2-chloro-3-(1-methyl-1H-imidazol-5-yl)-6-oxa-2(4,6)-quinolina-1,4(1,3)-dibenzenacyclohexaphan-3-ol]
ring closure, yield of all isomers ([3]; from Cn1cncc1C(O)(c1ccc(Br)c(CO)c1)c1ccc2nc(Cl)cc(-c3cccc(O)c3)c2c1, Cs2CO3, 116.2 mM, 2.0 h): 84% | IC50 [4]: > 100 nM
